Assays:
[1] = human
[2] = Proposed mechanism(s) of liver damage. [column 'MEC' in source]; conditions: human
[3] = Highest frequency of moderate liver toxicity observed during clinical trials, expressed as a percentage. [column '% BIOL' in source]; conditions: human
[4] = Highest frequency of acute liver toxicity observed during clinical trials, expressed as a percentage. [column '% AIGUE' in source]; conditions: human
[5] = human; remark: listed apart in the source
[6] = human; remark: listed apart in the source
[7] = human; remark: listed apart in the source
[8] = human, serum
[9] = human; remark: listed apart in the source
[10] = human; remark: listed apart in the source
[11] = Comments (NB not yet translated). [column 'COMMENTAIRES' in source]; conditions: human
[12] = human, serum, 4383 h
[13] = human; remark: listed apart in the source
[14] = human, serum; remark: listed apart in the source
[15] = Times to onset, minimal and maximal, observed in the indexed observations. [column 'DELAI' in source]; conditions: human
[16] = human; remark: listed apart in the source
[17] = human; remark: listed apart in the source
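Wherever Hepatotoxicity (association with vascular disease) is given: count of indexed literature references reporting vascular liver injury in humans, e.g. peliosis hepatitis, hepatic veno-occlusive disease or Budd-Chiari syndrome.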
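Wherever Hepatotoxicity (benign tumour) is given: value is a count of indexed literature references citing a benign tumour confirmed by histopathology.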
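Wherever Hepatotoxicity (choleostasis) is given: human cholestatic liver injury, shown by histopathology or by peak ALT or AST elevation over alkaline phosphatase ratio below 2, value counts indexed literature reports.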
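Wherever Hepatotoxicity (chronic liver disease) is given: chronic liver injury confirmed by histopathology or persistently raised serum aminotransferase activity beyond 6 months, value given as the count of indexed literature references.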
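Wherever Hepatotoxicity (cirrhosis) is given: value is a count of indexed literature references reporting cirrhosis confirmed by histopathology.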
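Wherever Hepatotoxicity (cytolytic) is given: human cytolytic liver injury, shown by histopathology or by a ratio above 5 of peak ALT or AST elevation to alkaline phosphatase elevation, value counts indexed references.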
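Wherever Hepatotoxicity (granulomatous hepatitis) is given: value is a count of indexed literature references reporting granulomatous liver disease confirmed by histopathology.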
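Wherever Hepatotoxicity (malignant tumour) is given: malignant tumour confirmed by histopathology, value gives the count of indexed literature references reporting it.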
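Wherever Hepatotoxicity (severe hepatitis) is given: human clinical data: severe hepatitis, meaning potentially life-threatening liver failure or clinically observed cases, the value counts how many indexed literature references report it.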
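Wherever Hepatotoxicity (steatosis) is given: steatosis confirmed by histopathology, value is the count of indexed references.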

## C[C@H]1c2cccc(O)c2C(=O)C2=C(O)[C@]3(O)C(=O)C(C(N)=O)=C(O)[C@@H](N(C)C)[C@@H]3[C@@H](O)[C@@H]21.O [DOXYCYCLINE]
[1]
  Hepatotoxicity (choleostasis): 3
[2]
  Hepatotoxicity (mechanism): Allergic
[3]
  Hepatotoxicity (moderate): 10%
[4]
  Hepatotoxicity (acute): 0%
[5]
  Hepatotoxicity (severe hepatitis): 1
[6]
  Hepatotoxicity (granulomatous hepatitis): 0
[7]
  Hepatotoxicity (association with vascular disease): 0
[8]
  Hepatotoxicity (acute): 5
[9]
  Hepatotoxicity (benign tumour): 0
[10]
  Hepatotoxicity (cytolytic): 1
[11]
  Hepatotoxicity (comment): CHOLESTASE_PROLONGEE DUCTOPENIE
[12]
  Hepatotoxicity (chronic liver disease): 1
[13]
  Hepatotoxicity (steatosis): 2
[14]
  Hepatotoxicity (moderate): 8
[15]
  Hepatotoxicity (time to onset): 1 day - 12 years
[16]
  Hepatotoxicity (malignant tumour): 0
[17]
  Hepatotoxicity (cirrhosis): 0

## CC1(C)S[C@@H]2[C@H](NC(=O)[C@H](N)c3ccc(O)cc3)C(=O)N2[C@H]1C(=O)O [AMOXICILLIN]
[1]
  Hepatotoxicity (choleostasis): 7
[2]
  Hepatotoxicity (mechanism): Allergic
[3]; Liver
  Hepatotoxicity (moderate): 8%
[4]; Liver
  Hepatotoxicity (acute): 0%
[5]; Liver
  Hepatotoxicity (severe hepatitis): 1
[6]
  Hepatotoxicity (granulomatous hepatitis): 1
[7]
  Hepatotoxicity (association with vascular disease): 0
[8]
  Hepatotoxicity (acute): 10
[9]
  Hepatotoxicity (benign tumour): 0
[10]
  Hepatotoxicity (cytolytic): 2
[11]
  Hepatotoxicity (comment): CHOLESTASE_PROLONGEE CHOLANGITE DUCTOPENIE RC/ERYTHROMYCINE
[12]
  Hepatotoxicity (chronic liver disease): 1
[13]
  Hepatotoxicity (steatosis): 0
[14]
  Hepatotoxicity (moderate): 7
[15]
  Hepatotoxicity (time to onset): 3 days - 8 weeks
[16]
  Hepatotoxicity (malignant tumour): 0
[17]
  Hepatotoxicity (cirrhosis): 0

## Cc1noc(NS(=O)(=O)c2ccc(N)cc2)c1C [SULFISOXAZOLE]
[1]
  Hepatotoxicity (choleostasis): 2
[2]
  Hepatotoxicity (mechanism): Allergic
[3]; Liver
  Hepatotoxicity (moderate): 0%
[4]; Liver
  Hepatotoxicity (acute): 0%
[5]; Liver
  Hepatotoxicity (severe hepatitis): 1
[6]
  Hepatotoxicity (granulomatous hepatitis): 0
[7]
  Hepatotoxicity (association with vascular disease): 0
[8]
  Hepatotoxicity (acute): 4
[9]
  Hepatotoxicity (benign tumour): 0
[10]
  Hepatotoxicity (cytolytic): 1
[11]
  Hepatotoxicity (comment): CHOLANGITE RC/COTRIMOXAZOLE
[12]
  Hepatotoxicity (chronic liver disease): 0
[13]
  Hepatotoxicity (steatosis): 0
[14]
  Hepatotoxicity (moderate): 0
[15]
  Hepatotoxicity (time to onset): 2 days - 6 days
[16]
  Hepatotoxicity (malignant tumour): 0
[17]
  Hepatotoxicity (cirrhosis): 0

## C[C@]12C=CC(=O)C=C1CC[C@@H]1[C@@H]2C(=O)C[C@@]2(C)[C@H]1CC[C@]2(O)C(=O)CO [PREDNISONE]
[1]
  Hepatotoxicity (choleostasis): 0
[2]
  Hepatotoxicity (mechanism): Dose-dependant
[3]
  Hepatotoxicity (moderate): 80%
[4]
  Hepatotoxicity (acute): 0%
[5]
  Hepatotoxicity (severe hepatitis): 1
[6]
  Hepatotoxicity (granulomatous hepatitis): 0
[7]
  Hepatotoxicity (association with vascular disease): 0
[8]
  Hepatotoxicity (acute): 0
[9]
  Hepatotoxicity (benign tumour): 1
[10]
  Hepatotoxicity (cytolytic): 0
[11]
  Hepatotoxicity (comment): AGGRAVATION/REACTIVATION_HVB HNF LITHIASE
[12]
  Hepatotoxicity (chronic liver disease): 0
[13]
  Hepatotoxicity (steatosis): 0
[14]
  Hepatotoxicity (moderate): 1
[15]
  Hepatotoxicity (time to onset): 10 months
[16]
  Hepatotoxicity (malignant tumour): 0
[17]
  Hepatotoxicity (cirrhosis): 0

## CCOC(=O)C1=C(COCCN)NC(C)=C(C(=O)OC)C1c1ccccc1Cl (configuration not stated) [AMLODIPINE]
[1]
  Hepatotoxicity (choleostasis): 2
[2]
  Hepatotoxicity (mechanism): Allergic
[3]; Liver
  Hepatotoxicity (moderate): 12.8%
[4]; Liver
  Hepatotoxicity (acute): 0%
[5]; Liver
  Hepatotoxicity (severe hepatitis): 0
[6]
  Hepatotoxicity (granulomatous hepatitis): 0
[7]
  Hepatotoxicity (association with vascular disease): 0
[8]
  Hepatotoxicity (acute): 4
[9]
  Hepatotoxicity (benign tumour): 0
[10]
  Hepatotoxicity (cytolytic): 3
[11]
  Hepatotoxicity (comment): CHOLANGIOLITE AC_ANTI-M/-N RC/DILTIAZEM
[12]
  Hepatotoxicity (chronic liver disease): 0
[13]
  Hepatotoxicity (steatosis): 0
[14]
  Hepatotoxicity (moderate): 2
[15]
  Hepatotoxicity (time to onset): 1 month - 10 months
[16]
  Hepatotoxicity (malignant tumour): 0
[17]
  Hepatotoxicity (cirrhosis): 0

## O=C(Nc1ccc(Cl)cc1)NS(=O)(=O)c1ccc2c(c1)CCC2 [SULOFENUR]
[1]
  Hepatotoxicity (choleostasis): 3
[2]
  Hepatotoxicity (mechanism): Dose-dependant
[3]
  Hepatotoxicity (moderate): 80%
[4]
  Hepatotoxicity (acute): 18.8%
[5]
  Hepatotoxicity (severe hepatitis): 0
[6]
  Hepatotoxicity (granulomatous hepatitis): 0
[7]
  Hepatotoxicity (association with vascular disease): 0
[8]
  Hepatotoxicity (acute): 6
[9]
  Hepatotoxicity (benign tumour): 0
[10]
  Hepatotoxicity (cytolytic): 4
[11]
  Hepatotoxicity (comment): CHOLANGITE
[12]
  Hepatotoxicity (chronic liver disease): 0
[13]
  Hepatotoxicity (steatosis): 0
[14]
  Hepatotoxicity (moderate): 9
[16]
  Hepatotoxicity (malignant tumour): 0
[17]
  Hepatotoxicity (cirrhosis): 0

## CC(=O)c1ccc2c(c1)N(CCCN(C)C)c1ccccc1S2 [ACEPROMAZINE]
[1]
  Hepatotoxicity (choleostasis): 1
[3]
  Hepatotoxicity (moderate): 0%
[4]
  Hepatotoxicity (acute): 0%
[5]
  Hepatotoxicity (severe hepatitis): 0
[6]
  Hepatotoxicity (granulomatous hepatitis): 0
[7]
  Hepatotoxicity (association with vascular disease): 0
[8]
  Hepatotoxicity (acute): 1
[9]
  Hepatotoxicity (benign tumour): 0
[10]
  Hepatotoxicity (cytolytic): 0
[11]
  Hepatotoxicity (comment): CHOLESTASE_PROLONGEE
[12]
  Hepatotoxicity (chronic liver disease): 0
[13]
  Hepatotoxicity (steatosis): 0
[14]
  Hepatotoxicity (moderate): 0
[15]
  Hepatotoxicity (time to onset): 3 months
[16]
  Hepatotoxicity (malignant tumour): 0
[17]
  Hepatotoxicity (cirrhosis): 0

## C[C@]12C=CC(=O)C=C1CC[C@@H]1[C@@H]2[C@@H](O)C[C@@]2(C)[C@H]1CC[C@]2(O)C(=O)CO [PREDNISOLONE]
[1]
  Hepatotoxicity (choleostasis): 0
[3]
  Hepatotoxicity (moderate): 0%
[4]
  Hepatotoxicity (acute): 0%
[5]
  Hepatotoxicity (severe hepatitis): 2
[6]
  Hepatotoxicity (granulomatous hepatitis): 0
[7]
  Hepatotoxicity (association with vascular disease): 0
[8]
  Hepatotoxicity (acute): 2
[9]
  Hepatotoxicity (benign tumour): 1
[10]
  Hepatotoxicity (cytolytic): 2
[11]
  Hepatotoxicity (comment): AGGRAVATION_ANGIOMES
[12]
  Hepatotoxicity (chronic liver disease): 0
[13]
  Hepatotoxicity (steatosis): 2
[14]
  Hepatotoxicity (moderate): 0
[15]
  Hepatotoxicity (time to onset): 6 days - 8 years
[16]
  Hepatotoxicity (malignant tumour): 0
[17]
  Hepatotoxicity (cirrhosis): 0

## C[C@]12C=CC(=O)C=C1CC[C@@H]1[C@@H]2CC[C@@]2(C)[C@H]1CC[C@]2(C)O (stereo in doubt; form 1) [METHANDROSTENOLONE]
[1]
  Hepatotoxicity (choleostasis): 0
[3]
  Hepatotoxicity (moderate): 0%
[4]
  Hepatotoxicity (acute): 0%
[5]
  Hepatotoxicity (severe hepatitis): 0
[6]
  Hepatotoxicity (granulomatous hepatitis): 0
[7]
  Hepatotoxicity (association with vascular disease): 0
[8]
  Hepatotoxicity (acute): 3
[9]
  Hepatotoxicity (benign tumour): 1
[10]
  Hepatotoxicity (cytolytic): 0
[11]
  Hepatotoxicity (comment): ANGIOSARCOME
[12]
  Hepatotoxicity (chronic liver disease): 0
[13]
  Hepatotoxicity (steatosis): 0
[14]
  Hepatotoxicity (moderate): 0
[15]
  Hepatotoxicity (time to onset): 1 year - 2 years
[16]
  Hepatotoxicity (malignant tumour): 2
[17]
  Hepatotoxicity (cirrhosis): 0

## CC(=O)OCC(CCn1cnc2cnc(N)nc21)COC(C)=O [FAMCICLOVIR]
[1]
  Hepatotoxicity (choleostasis): 0
[3]
  Hepatotoxicity (moderate): 0%
[4]
  Hepatotoxicity (acute): 0%
[5]
  Hepatotoxicity (severe hepatitis): 1
[6]
  Hepatotoxicity (granulomatous hepatitis): 0
[7]
  Hepatotoxicity (association with vascular disease): 0
[8]
  Hepatotoxicity (acute): 1
[9]
  Hepatotoxicity (benign tumour): 0
[10]
  Hepatotoxicity (cytolytic): 0
[11]
  Hepatotoxicity (comment): REACTIVATION_HVB
[12]
  Hepatotoxicity (chronic liver disease): 0
[13]
  Hepatotoxicity (steatosis): 0
[14]
  Hepatotoxicity (moderate): 0
[15]
  Hepatotoxicity (time to onset): 12 weeks
[16]
  Hepatotoxicity (malignant tumour): 0
[17]
  Hepatotoxicity (cirrhosis): 0

## Cc1cc(Br)c(O)c2ncccc12 [TILBROQUINOL]
[1]
  Hepatotoxicity (choleostasis): 0
[3]
  Hepatotoxicity (moderate): 0%
[4]
  Hepatotoxicity (acute): 0%
[5]
  Hepatotoxicity (severe hepatitis): 0
[6]
  Hepatotoxicity (granulomatous hepatitis): 1
[7]
  Hepatotoxicity (association with vascular disease): 0
[8]
  Hepatotoxicity (acute): 1
[9]
  Hepatotoxicity (benign tumour): 0
[10]
  Hepatotoxicity (cytolytic): 0
[11]
  Hepatotoxicity (comment): CHOLANGITE
[12]
  Hepatotoxicity (chronic liver disease): 0
[13]
  Hepatotoxicity (steatosis): 0
[14]
  Hepatotoxicity (moderate): 0
[15]
  Hepatotoxicity (time to onset): 4 days
[16]
  Hepatotoxicity (malignant tumour): 0
[17]
  Hepatotoxicity (cirrhosis): 0

## NS(=O)(=O)c1cc2c(cc1Cl)N=CNS2(=O)=O [CHLOROTHIAZIDE]
[1]
  Hepatotoxicity (choleostasis): 5
[3]
  Hepatotoxicity (moderate): 0%
[4]
  Hepatotoxicity (acute): 0%
[5]
  Hepatotoxicity (severe hepatitis): 1
[6]
  Hepatotoxicity (granulomatous hepatitis): 0
[7]
  Hepatotoxicity (association with vascular disease): 0
[8]
  Hepatotoxicity (acute): 5
[9]
  Hepatotoxicity (benign tumour): 0
[10]
  Hepatotoxicity (cytolytic): 0
[11]
  Hepatotoxicity (comment): #CBP
[12]
  Hepatotoxicity (chronic liver disease): 0
[13]
  Hepatotoxicity (steatosis): 0
[14]
  Hepatotoxicity (moderate): 0
[15]
  Hepatotoxicity (time to onset): 2 weeks - 2 years
[16]
  Hepatotoxicity (malignant tumour): 0
[17]
  Hepatotoxicity (cirrhosis): 1

## Cc1cnc(C(=O)NCCc2ccc(S(=O)(=O)NC(=O)NC3CCCCC3)cc2)cn1 [GLIPIZIDE]
[1]
  Hepatotoxicity (choleostasis): 0
[2]
  Hepatotoxicity (mechanism): Allergic
[3]; Liver
  Hepatotoxicity (moderate): 0%
[5]; Liver
  Hepatotoxicity (severe hepatitis): 2
[6]
  Hepatotoxicity (granulomatous hepatitis): 0
[7]
  Hepatotoxicity (association with vascular disease): 0
[9]
  Hepatotoxicity (benign tumour): 0
[10]
  Hepatotoxicity (cytolytic): 3
[11]
  Hepatotoxicity (comment): AC_ANTI-ML
[12]
  Hepatotoxicity (chronic liver disease): 0
[13]
  Hepatotoxicity (steatosis): 0
[14]
  Hepatotoxicity (moderate): 1
[15]
  Hepatotoxicity (time to onset): 2 days - 5 months
[16]
  Hepatotoxicity (malignant tumour): 0
[17]
  Hepatotoxicity (cirrhosis): 0
